Columns and labels:
Assay in all cases: Binding to micellar cis-9-octadecenyl phosphocholine by UV absorption difference spectroscopy
Details in all cases: micellar ligand, N = number of lipid monomers per molecule of enzyme, KD = micellar dissociation constant, read-out: N.KD apparent dissociation constant
[1] = target: T1, Porcine pancreatic phospholipase A₂, [ε-Ol-Lys¹¹⁶]-AMPA (Sus scrofa, UniProt P00592)
T1 construct: Conversion of pro-PLA (i.e. Prec) into [ε-Acyl-Lys¹¹⁶]-AMPA; from tissue; host or cells: pig pancreas; chemically amidinated and oleoylated at Lys116
From the text: The following methods, in which the abbreviations used have the meanings given hereinafter, are used for determining the enzymatic activity, the lipid binding properties and the penetrating capacity of the site-specific mono-acylated phospholipases A2 belonging to the invention: -PLA: phospholipase […]: fully ε-amidinated pro-PLA -AMPA: fully ε-amidinated PLA -t-Boc: tertiary butoxycarbonyl -For: formyl -TFA: trifluoroacetic acid -Tris: tri(hydroxymethyl)amino methane -DFP: diisopropylfluorophosphate -DEAE: diethylamino ethyl -CM: carboxymethyl -FPLC: fast protein liquid chromatography -LC: liquid chromatography -TPCK: […]-2-ethanesulphonic acid -DABITC: dimethylamino azobenzene-iso-thiocyanate. • a. Protein concentrations are determined from the absorption at 280 nm using E 1 cm (1%) of 13.0 for porcine and bovine pancreatic ε-amidinated PLA and the mono-acylated analogs thereof. […] Monolayer experiments are carried out using the zero order through with two compartments and the surface barostat technique for measuring phospholipid hydrolysis ([…] and De Haas, Chem. Phys. Lipids, 10, (1973), 127-136). Calculation of the induction time (τ) is carried out as described by […] et al. J. Biol. Chem. 248 (1973), 4023-4034). Surface tension (π) is measured by means of the plate method by Wilhelmy using a thin platinum plate attached to a Beckman R II C Model LM 600 microbalance. • d. […]

[2] = target: T2, Porcine pancreatic phospholipase A₂ (PLA), native (Sus scrofa, UniProt P00592)
T2 construct: pancreatic pro-PLA's can be purified and converted into the corresponding PLA's; from tissue; host or cells: pig pancreas
From the text: (§1) The following methods, in which the abbreviations used have the meanings given hereinafter, are used for determining the enzymatic activity, the lipid binding properties and the penetrating capacity of the site-specific mono-acylated phospholipases A2 belonging to the invention: -PLA: phospholipase […]: fully ε-amidinated pro-PLA -AMPA: fully ε-amidinated PLA -t-Boc: tertiary butoxycarbonyl -For: formyl -TFA: trifluoroacetic acid -Tris: tri(hydroxymethyl)amino methane -DFP: diisopropylfluorophosphate -DEAE: diethylamino ethyl -CM: carboxymethyl -FPLC: fast protein liquid chromatography -LC: liquid chromatography -TPCK: […]-2-ethanesulphonic acid -DABITC: dimethylamino azobenzene-iso-thiocyanate. • a. Protein concentrations are determined from the absorption at 280 nm using E 1 cm (1%) of 13.0 for porcine and bovine pancreatic ε-amidinated PLA and the mono-acylated analogs thereof. […] Monolayer experiments are carried out using the zero order through with two compartments and the surface barostat technique for measuring phospholipid hydrolysis ([…] and De Haas, Chem. Phys. Lipids, 10, (1973), 127-136). Calculation of the induction time (τ) is carried out as described by […] et al. J. Biol. Chem. 248 (1973), 4023-4034). Surface tension (π) is measured by means of the plate method by Wilhelmy using a thin platinum plate attached to a Beckman R II C Model LM 600 microbalance. • d. Kinetic measurements with micellar diC8PC are carried out according to De Haas et al, Biochem. Biophys. Acta, 239, (1971) 252-266. […] From the table it appears that the presence of a covalently attached long chain fatty acid on […] or […] considerably improves the binding of the enzyme to the zwitterionic detergent. A larger chain length of the fatty acid leads to a lower apparent dissociation constant (N.KD), which means a greater affinity to the organized lipid-water interface which is formed by the micellar substrate analog. [table]

[3] = target: T3, Porcine pancreatic phospholipase A₂, [ε-Lau-Lys¹¹⁶]-AMPA (Sus scrofa, UniProt P00592)
T3 construct: Conversion of pro-PLA (i.e. Prec) into [ε-Acyl-Lys¹¹⁶]-AMPA; from tissue; host or cells: pig pancreas; chemically amidinated and lauroylated at Lys116
From the text: as §1

[4] = target: T4, Bovine pancreatic phospholipase A₂, [Arg⁶]-AMPA (Bos taurus, UniProt P00593, N28R)
T4 construct: fully ε-amidinated according to the method by Wallace and Harris, Biochem. J., 217, (1984), 589-594, and converted into AMPA; from tissue; host or cells: bovine pancreas
From the text: as §1

[5] = target: T5, Bovine pancreatic phospholipase A₂, AMPA (fully ε-amidinated PLA) (Bos taurus, UniProt P00593)
T5 construct: fully ε-amidinated according to the method by Wallace and Harris, Biochem. J., 217, (1984), 589-594, and converted into AMPA; from tissue; host or cells: bovine pancreas; chemically amidinated as the pro-enzyme, then converted to the active enzyme
From the text: as §1

[6] = target: T6, Porcine pancreatic phospholipase A₂, [ε-Pal-Lys¹¹⁶]-AMPA (Sus scrofa, UniProt P00592)
T6 construct: Conversion of pro-PLA (i.e. Prec) into [ε-Acyl-Lys¹¹⁶]-AMPA; from tissue; host or cells: pig pancreas; chemically amidinated and palmitoylated at Lys116
From the text: as §1

[7] = target: T7, Porcine pancreatic phospholipase A₂, [ε-Cap-Lys¹¹⁶]-AMPA (Sus scrofa, UniProt P00592)
T7 construct: Conversion of pro-PLA (i.e. Prec) into [ε-Acyl-Lys¹¹⁶]-AMPA; from tissue; host or cells: pig pancreas; chemically amidinated and caprinoylated at Lys116
From the text: as §1

[8] = target: T8, Bovine pancreatic phospholipase A₂ (PLA), native (Bos taurus, UniProt P00593)
T8 construct: pancreatic pro-PLA's can be purified and converted into the corresponding PLA's; from tissue; host or cells: bovine pancreas
From the text: as §1

[9] = target: T9, Porcine pancreatic phospholipase A₂, AMPA (fully ε-amidinated PLA) (Sus scrofa, UniProt P00592)
T9 construct: fully ε-amidinated according to the method by Wallace and Harris, Biochem. J., 217, (1984), 589-594, and converted into AMPA; from tissue; host or cells: pig pancreas; chemically amidinated as the pro-enzyme, then converted to the active enzyme
From the text: as §1

[10] = target: T10, Porcine pancreatic phospholipase A₂, [ε-NH₂-Lys¹¹⁶]-AMPA (Sus scrofa, UniProt P00592)
T10 construct: incubated with 0.1% (wt/wt) trypsin at pH 8.0 (10 mM Tris, 5 mM Ca²⁺) in order to obtain [ε-NH₂-Lys-]AMPA; from tissue; host or cells: pig pancreas; partial amidination in the presence of diC8GS, then trypsin conversion of the pro-enzyme
From the text: as §1

[11] = target: T11, Porcine pancreatic phospholipase A₂, [ε-Mal-Lys¹¹⁶]-AMPA (Sus scrofa, UniProt P00592)
T11 construct: Conversion of pro-PLA (i.e. Prec) into [ε-Acyl-Lys¹¹⁶]-AMPA; from tissue; host or cells: pig pancreas; chemically amidinated and maleylated at Lys116
From the text: as §1

[12] = target: T12, Bovine pancreatic phospholipase A₂, [Arg⁶,ε-Pal-Lys¹⁰]-AMPA (Bos taurus, UniProt P00593, N28R)
T12 construct: Conversion of fully ε-amidinated bovine pancreatic AMPrec in [Arg⁶, ε-Pal-Lys¹⁰]-AMPA; from tissue; host or cells: bovine pancreas; semisynthetic: amidinated fragment 11-123 re-elongated with Pal-Lys, Ile, Met and Ala.Leu.Trp.Gln.Phe.Arg.Gly
From the text: as §1

[13] = target: T13, Porcine pancreatic phospholipase A₂, [ε-Ac-Lys¹¹⁶]-AMPA (Sus scrofa, UniProt P00592)
T13 construct: Conversion of pro-PLA (i.e. Prec) into [ε-Acyl-Lys¹¹⁶]-AMPA; from tissue; host or cells: pig pancreas; chemically amidinated and acetylated at Lys116
From the text: as §1

T4 sequence (P00593 23-145 N28R): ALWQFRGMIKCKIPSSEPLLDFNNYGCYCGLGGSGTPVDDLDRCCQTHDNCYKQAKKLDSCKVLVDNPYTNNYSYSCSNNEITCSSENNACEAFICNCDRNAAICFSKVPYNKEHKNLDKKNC
T12 sequence (P00593 23-145 N28R): as above
T5 sequence (P00593 23-145): as the sequence (P00593 23-145 N28R) above, with R6N counted along it
T8 sequence (P00593 23-145): as the sequence (P00593 23-145 N28R) above, with R6N counted along it
T11 sequence (P00592 23-146): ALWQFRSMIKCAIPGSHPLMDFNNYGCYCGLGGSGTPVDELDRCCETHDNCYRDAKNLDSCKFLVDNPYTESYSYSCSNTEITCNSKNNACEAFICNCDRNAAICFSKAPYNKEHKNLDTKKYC
T3 sequence (P00592 23-146): as above
T10 sequence (P00592 23-146): as above
T6 sequence (P00592 23-146): as above
T1 sequence (P00592 23-146): as above
T7 sequence (P00592 23-146): as above
T2 sequence (P00592 23-146): as above
T9 sequence (P00592 23-146): as above
T13 sequence (P00592 23-146): as above

Kd [1]: 18 µM
Kd [2]: 58 µM
Kd [3]: 29 µM
Kd [4]: 120 µM
Kd [5]: 3.2 mM
Kd [6]: 12 µM
Kd [7]: 33 µM
Kd [8]: 660 µM
Kd [9]: 76 µM
Kd [10]: 44 µM
Kd [11]: 43 µM
Kd [12]: 20 µM
Kd [13]: 38 µM
SMILES: CCCCCCCC/C=C\CCCCCCCCOP(=O)([O-])OCC[N+](C)(C)C [cis-9-octadecenylphosphocholine]
